Measurements reported in patent US5935973A, “Heterocyclcarboxamide derivatives and their use as therapeutic agents” (Knoll Aktiengesellschaft, priority 1995, dated 1999).

Experiments:
5-HT1A receptors = biological target: T1, 5-HT1A receptors (Rattus norvegicus, UniProt P19327); assay: inhibition of [3H]8-OH-DPAT binding to 5-HT1A receptors in rat hippocampal tissue; conditions: rat hippocampus; for Ki: [3H]8-OH-DPAT 2 nM, 25° C., 30 min; for inhibition at 1 µM: at 10^-6 M, [3H]8-OH-DPAT, read-out: % displacement of radio ligand, 5-HT1A
T1 construct: Hippocampal tissue from the brains of male Sprague-Dawley rats; from tissue; host or cells: rat hippocampus membranes
T1 sequence (P19327 1-422): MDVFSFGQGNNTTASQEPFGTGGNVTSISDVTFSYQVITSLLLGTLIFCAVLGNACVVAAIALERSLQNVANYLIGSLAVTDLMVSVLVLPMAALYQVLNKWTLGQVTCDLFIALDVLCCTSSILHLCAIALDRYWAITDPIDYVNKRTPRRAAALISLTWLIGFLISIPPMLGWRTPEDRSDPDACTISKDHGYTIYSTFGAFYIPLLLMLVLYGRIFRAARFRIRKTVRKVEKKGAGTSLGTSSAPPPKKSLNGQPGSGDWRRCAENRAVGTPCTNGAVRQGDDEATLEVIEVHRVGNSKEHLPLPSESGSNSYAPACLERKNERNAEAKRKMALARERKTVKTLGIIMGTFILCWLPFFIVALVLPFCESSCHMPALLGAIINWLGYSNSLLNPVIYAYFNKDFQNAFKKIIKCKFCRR
Description: Hippocampal tissue from the brains of male Sprague-Dawley rats (Charles River; weight range 150-250 g) was homogenised in ice-cold 50 mM Tris-HCl buffer (pH 7.7 when measured at 25° C., 1:40 w/v) and centrifuged at 30,000 g at 4° C. for 10 minutes. The pellet was rehomogenised in the same buffer, incubated at 37° C. for 10 minutes and centrifuged at 30,000 g at 4° C. for 10 minutes. The final pellet was resuspended in 50 mM Tris-HCl buffer (pH 7.7) containing 4 mM CaCl2, 0.1% L-ascorbic acid and 10 μM pargyline hydrochloride (equivalent to 6.25 mg wet weight of tissue/ml) and used immediately in the binding assay. Aliquots (400 μl; equivalent to 2.5 mg wet weight of tissue/tube) of this suspension were added to tubes containing the ligand (50 μl; 2 nM) and distilled water (50 μl total binding) or 5-HT (50 μl; 10 μM; non-specific binding) or test compound (50 μl; at a single concentration of 10^-6 M or at 10 concentrations ranging from 10^-11 -10^-3 M). The ligand was [^3 H]8-hydroxy-2-(dipropylamino)tetralin ([^3 H]8-OH-DPAT) and the mixture was incubated at 25° C. for 30 minutes before the incubation was terminated by rapid filtration.
(§1) The filters were washed with ice-cold Tris-HCl buffer and dried. The filters were punched out into vials, scintillation fluid added and radioactivity determined by liquid scintillation counting. The percentage displacement of specific binding of the tritiated ligand was calculated for the single concentration (10^-6 M) of test compound. Displacement curves were then produced for those compounds which displaced ≥50% of specific binding of the tritiated ligand at 10^-6 M using a range of concentrations of the compound. The concentration which gave 50% inhibition of specific binding (IC50) was obtained from the curve. The inhibition coefficient Ki was then calculated using the formula [formula] in which [ligand] is the concentration of the tritiated ligand used and KD is the equilibrium dissociation constant for the ligand.

α2A-adrenoceptors = biological target: T2, α2A-adrenoceptors (Homo sapiens, UniProt P08913); assay: inhibition of tritiated RX 821002 binding to α2A-adrenoceptors in human cerebral cortex; conditions: for inhibition at 1 µM: at 10^-6 M, tritiated RX 821002, read-out: % displacement of radio ligand, α2A
T2 construct: Human cerebral cortex obtained at post-mortem; from tissue; host or cells: human post-mortem cerebral cortex membranes
T2 sequence (P08913 1-465): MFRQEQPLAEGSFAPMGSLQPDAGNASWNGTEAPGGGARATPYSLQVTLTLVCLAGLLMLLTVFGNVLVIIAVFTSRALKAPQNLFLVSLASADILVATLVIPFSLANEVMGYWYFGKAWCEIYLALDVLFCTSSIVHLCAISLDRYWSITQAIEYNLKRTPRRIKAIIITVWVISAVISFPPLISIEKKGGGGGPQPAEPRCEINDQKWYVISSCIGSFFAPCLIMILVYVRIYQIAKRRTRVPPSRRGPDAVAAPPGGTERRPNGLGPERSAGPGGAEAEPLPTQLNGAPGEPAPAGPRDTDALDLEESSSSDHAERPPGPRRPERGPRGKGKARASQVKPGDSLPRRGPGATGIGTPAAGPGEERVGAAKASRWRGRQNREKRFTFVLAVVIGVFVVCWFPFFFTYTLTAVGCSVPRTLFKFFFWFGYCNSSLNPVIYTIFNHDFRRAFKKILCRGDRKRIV
Description: Human cerebral cortex obtained at post-mortem was homogenised in ice-cold 0.25M sucrose (1:30 w/v) and centrifuged at 1,000 g at 4° C. for 12 minutes. The supernatant was stored on ice and the pellet was rehomogenised in 0.25M sucrose (1:15 w/v) and centrifuged at 850 g at 4° C. for 12 minutes. Combined supernatants were diluted with 5mM Tris-HCl (pH 7.5) containing 5 mM ethylenediamine tetraacetic acid (EDTA), readjusted to pH 7.5 (at 25° C.) with 1M sodium hydroxide to 1:80 w/v, and centrifuged at 11,000 g at 4° C. for 10 minutes. The resulting pellet was resuspended in 50 mM Tris-HCl (pH 7.5) containing 5.68 mM L-ascorbic acid and 0.5 mM EDTA, readjusted to pH 7.5 (at 25° C.) with 1 M sodium hydroxide to 1:80 w/v, and centrifuged at 11,000 g for 10 minutes. The pellet was stored at -80° C. On the day of the assay the pellet was thawed, resuspended in 50 mM Tris-HCl (pH 7.5) containing 5.68 mM L-ascorbic acid and 5 mM EDTA to 1:80 w/v and centrifuged at 11,000 g for 10 minutes. The final pellet was resuspended in 50 mM Tris-HCl (pH 7.5) containing 5.68 mM L-ascorbic acid and 5 mM EDTA (equivalent to 25 mg wet weight of tissue/ml).
Aliquots (400 μl; equivalent to 10 mg wet weight of tissue/tube) of this suspension were added to tubes containing the ligand (50 μl; 0.2 nM) and distilled water (50 μl; total binding) or phentolamine (50 μl; 50 μM; non-specific binding) or test compound (50 μl; at a single concentration of 10^-6 M or at 10 concentrations ranging from 10^-11 -10^-3 M). The ligand was tritiated RX 821002 (2-(2-methoxy-1,4-[6,7(n)-^3 H]benzodioxan-2-yl)-2-imidazoline) and the mixture was incubated at 0° C. for 75 minutes before the incubation was terminated by rapid filtration.
as §1, with “(IC50)was” for “(IC50) was”

Nc1ncccc1C(=O)NCC1CCN(C[C@H]2COc3ccc(Cl)cc3O2)CC1 [Example 1, (S)-(-)-2-amino-N-{[1-(7-chloro-1,4-benzodioxan-2-ylmethyl)-4-piperidyl]methyl}pyridine-3-carboxamide]
Ki (5-HT1A receptors): 41.5 nM

Nc1ncccc1C(=O)NCC1CCN(C[C@H]2COc3cccc(Cl)c3O2)CC1 [Example 2, (S)-2-amino-N-{[1-(8-chloro-1,4-benzodioxan-2-ylmethyl)-4-piperidyl]methyl}-pyridine-3-carboxamide]
inhibition at 1 µM (5-HT1A receptors): 97%

Nc1ncccc1C(=O)NCC1CCN(C[C@H]2COc3cccc(F)c3O2)CC1 [Example 3, (S)-(-)-2-amino-N-{[1-(8-fluoro-1,4-benzodioxan-2-ylmethyl)-4-piperidyl]methyl}pyridine-3-carboxamide]
Ki (5-HT1A receptors): 18 nM

Nc1ncccc1C(=O)NCC1CCN(CC2COc3ccccc3O2)CC1 (centres unmarked) [Example 4, 2-amino-N-{[1-(1,4-benzodioxan-2-ylmethyl)-4-piperidyl]methyl}pyridine-3-carboxamide]
inhibition at 1 µM (5-HT1A receptors): 90%

Cc1ccc2c(c1)O[C@@H](CN1CCC(CNC(=O)c3cccnc3N)CC1)CO2 [Example 5, (S)-2-amino-N-{[1-(7-methyl-1,4-benzodioxan-2-ylmethyl)-4-piperidyl]methyl}pyridine-3-carboxamide]
Ki (5-HT1A receptors): 94 nM
inhibition at 1 µM (α2A-adrenoceptors): 98%

O=C(NCC1CCN(CC2COc3ccccc3O2)CC1)c1ccccn1 (centres unmarked) [Example 6, N-{[1-(1,4-benzodioxan-2-ylmethyl)-4-piperidyl]methyl}pyridine-2-carboxamide]
Ki (5-HT1A receptors): 27 nM
inhibition at 1 µM (α2A-adrenoceptors): 100%

COc1ccc2c(c1)O[C@@H](CN1CCC(CNC(=O)c3cccnc3N)CC1)CO2 [Example 7, (S)-2-amino-N{[1-(7-methoxy-1,4-benzodioxan-2-ylmethyl)-4-piperidyl]methyl}-pyridine-3-carboxamide]
Ki (5-HT1A receptors): 38 nM
Ki (α2A-adrenoceptors; tritiated RX 821002 0.2 nM, 0° C., 75 min): 2.8 nM

O=C(NCC1CCN(CC2COc3ccccc3O2)CC1)c1cccc2cccnc12 (centres unmarked) [Example 8, N-{[1-(1,4-benzodioxan-2-ylmethyl)-4-piperidyl]methyl}quinoline-8-carboxamide]
Ki (5-HT1A receptors): 12 nM
inhibition at 1 µM (α2A-adrenoceptors): 99%

Cc1ncccc1C(=O)NCC1CCN(C[C@H]2COc3cccc(Cl)c3O2)CC1 [Example 9, (S)-N-{[1-(8-chloro-1,4-benzodioxan-2-ylmethyl)-4-piperidyl]methyl}-2-methylpyridine-3-carboxamide]
Ki (5-HT1A receptors): 54 nM
inhibition at 1 µM (α2A-adrenoceptors): 99%

Nc1ncccc1C(=O)NCC1CCN(CC2COc3ccc(F)cc3O2)CC1 (centres unmarked) [Example 10, 2-amino-N-{[1-(7-fluoro-1,4-benzodioxan-2-ylmethyl)-4-piperidyl]methyl}pyridine-3-carboxamide]
Ki (5-HT1A receptors): 57 nM
inhibition at 1 µM (α2A-adrenoceptors): 100%

COc1cccc2c1OC(CN1CCC(CNC(=O)c3cccnc3N)CC1)CO2 (centres unmarked) [Example 11, 2-amino-N-{[1-(8-methoxy-1,4-benzodioxan-2-ylmethyl)-4-piperidyl]methyl}pyridine-3-carboxamide]
Ki (5-HT1A receptors): 19 nM
inhibition at 1 µM (α2A-adrenoceptors): 99%

O=C(NCC1CCN(C[C@H]2COc3ccc(Cl)cc3O2)CC1)c1ccccn1 [Example 12, (S)-N-{[1-(7-chloro-1,4-benzodioxan-2-ylmethyl)-4-piperidyl]methyl}pyridine-2-carboxamide]
Ki (5-HT1A receptors): 16 nM
inhibition at 1 µM (α2A-adrenoceptors): 99%

Cc1cccc2c1O[C@@H](CN1CCC(CNC(=O)c3cccnc3N)CC1)CO2 [Example 13, (S)-2-amino-N-{[1-(8-methyl-1,4-benzodioxan-2-ylmethyl)-4-piperidyl]methyl}pyridine-3-carboxamide]
Ki (5-HT1A receptors): 38 nM
inhibition at 1 µM (α2A-adrenoceptors): 100%

Cc1ccc(C(=O)NCC2CCN(C[C@H]3COc4ccc(Cl)cc4O3)CC2)c(N)n1 [Example 14, (S)-2-amino-N-{[1-(7-chloro-1,4-benzodioxan-2-ylmethyl)-4-piperidyl]methyl}-6-methylpyridine-3-carboxamide]
Ki (5-HT1A receptors): 26 nM

Nc1ncccc1C(=O)NCC1CCN(C[C@H]2COc3ccccc3O2)CC1 [Example 15, (S)-2-amino-N-{[1-(1,4-benzodioxan-2-ylmethyl)-4-piperidyl]methyl}pyridine-3-carboxamide]
Ki (5-HT1A receptors): 40.8 nM
inhibition at 1 µM (α2A-adrenoceptors): 100%

Nc1ccsc1C(=O)NCC1CCN(CC2COc3ccccc3O2)CC1 (centres unmarked) [Example 16, 3-amino-N-{[1-(1,4-benzodioxan-2-ylmethyl)-4-piperidyl]methyl}thiophene-2-carboxamide]
Ki (5-HT1A receptors): 63 nM
inhibition at 1 µM (α2A-adrenoceptors): 100%

Nc1ccsc1C(=O)NCC1CCN(C[C@H]2COc3ccc(Cl)cc3O2)CC1 [Example 17, (S)-3-amino-N-{[1-(7-chloro-1,4-benzodioxan-2-ylmethyl)-4-piperidyl]methyl}thiophene-2-carboxamide]
Ki (5-HT1A receptors): 32 nM
inhibition at 1 µM (α2A-adrenoceptors): 99%

Cc1ncccc1C(=O)NCC1CCN(C[C@H]2COc3ccc(Cl)cc3O2)CC1 [Example 18, (S)-N-{[1-(7-chloro-1,4-benzodioxan-2-ylmethyl)-4-piperidyl]methyl}-2-methylpyridine-3-carboxamide]
Ki (5-HT1A receptors): 83 nM

Nc1ncccc1C(=O)NCC1CCN(C[C@H]2COc3cccc(C(F)(F)F)c3O2)CC1 [Example 20, (S)-2-amino-N-{[1-(8-trifluoromethyl-1,4-benzodioxan-2-ylmethyl)-4-piperidyl]methyl}pyridine-3-carboxamide]
Ki (5-HT1A receptors): 41 nM
inhibition at 1 µM (α2A-adrenoceptors): 101%
